Measured values from ChEMBL document CHEMBL1255477, “In vitro properties of BAL30072, a novel siderophore sulfactam with activity against multiresistant gram-negative bacilli” (Antimicrob Agents Chemother, 2010).

Tests used:
Pseudomonas aeruginosa [1] = experiment: Antimicrobial activity against Pseudomonas aeruginosa BA(C2-107) selected after 25 ug/ml of compound exposure by broth dilution method; type: functional
Pseudomonas aeruginosa [2] = experiment: Antimicrobial activity against mexAB-oprM protein and mexCD-oprJ deficient Pseudomonas aeruginosa PAO238 by broth dilution method; type: functional
Pseudomonas aeruginosa [3] = experiment: Antimicrobial activity against Pseudomonas aeruginosa BA(C1-106) selected after 25 ug/ml of compound exposure by broth dilution method; type: functional
Pseudomonas aeruginosa [4] = experiment: Antimicrobial activity against Pseudomonas aeruginosa by broth dilution method; type: functional
Pseudomonas aeruginosa [5] = settings: PAO1
Description: Antimicrobial activity against Pseudomonas aeruginosa PAO1 by broth dilution method

Pseudomonas aeruginosa [6] = experiment: Antimicrobial activity against mexAB-oprM protein and mexZ deficient Pseudomonas aeruginosa PAO267 by broth dilution method; type: functional
Pseudomonas aeruginosa [7] = experiment: Antimicrobial activity against mexAB-oprM, mexCD-oprJ, mexEF-oprN, mexJK, mexXY, opmH and pscC gene deficient Pseudomonas aeruginosa PAO750 by broth dilution method; type: functional
Acinetobacter sp. = experiment: Antimicrobial activity against Acinetobacter sp. by broth dilution method; type: functional
Pseudomonas aeruginosa [8] = experiment: Antimicrobial activity against mexAB-oprM protein and mexCD-oprJ deficient Pseudomonas aeruginosa PAO253 overexpressing MexEF-OprN gene by broth dilution method; type: functional
Pseudomonas aeruginosa [9] = experiment: Antimicrobial activity against Pseudomonas aeruginosa BA by broth dilution method; type: functional
Pseudomonas aeruginosa [10] = experiment: Antimicrobial activity against Pseudomonas aeruginosa B4 by broth dilution method; type: functional
Pseudomonas aeruginosa [11] = experiment: Antimicrobial activity against oprD protein deficient Pseudomonas aeruginosa C2 by broth dilution method; type: functional
[12] = substrate: C[C@H]1[C@H](NC(=O)/C(=N\OC(C)(C)C(=O)O)c2csc(N)n2)C(=O)N1S(=O)(=O)O; settings: Escherichia coli; ATCC 25922
Description: (§1) Ratio of Kcat to Km for Escherichia coli ATCC 25922 AmpC

[13] = substrate: CC1(C)[C@H](NC(=O)/C(=N\OCc2cc(=O)c(O)cn2O)c2csc(N)n2)C(=O)N1OS(=O)(=O)O; settings: Escherichia coli; ATCC 25922
Description: as §1

[14] = substrate: C[C@H]1[C@H](NC(=O)/C(=N\OC(C)(C)C(=O)O)c2csc(N)n2)C(=O)N1S(=O)(=O)O; settings: Escherichia coli; ATCC 25922; remark: listed apart in the source
Description: (§2) Binding affinity to Escherichia coli ATCC 25922 AmpC

[15] = substrate: CC1(C)[C@H](NC(=O)/C(=N\OCc2cc(=O)c(O)cn2O)c2csc(N)n2)C(=O)N1OS(=O)(=O)O; settings: Escherichia coli; ATCC 25922; remark: listed apart in the source
Description: as §2

POLYMYXIN B
MIC (Pseudomonas aeruginosa [1]): 4 µg/mL | MIC (Pseudomonas aeruginosa [2]): 8 µg/mL | MIC (Pseudomonas aeruginosa [3]): 2 µg/mL | MIC50 (Pseudomonas aeruginosa [4]): 4 µg/mL | MIC90 (Pseudomonas aeruginosa [4]): 8 µg/mL | MIC (Pseudomonas aeruginosa [5]): 8 µg/mL | MIC (Pseudomonas aeruginosa [6]): 8 µg/mL | MIC (Pseudomonas aeruginosa [7]): 8 µg/mL | MIC50 (Acinetobacter sp.): 4 µg/mL | MIC90 (Acinetobacter sp.): 32 µg/mL | MIC (Pseudomonas aeruginosa [8]): 4 µg/mL | MIC (Pseudomonas aeruginosa [9]): 4 µg/mL | MIC (Pseudomonas aeruginosa [10]): 2 µg/mL | MIC (Pseudomonas aeruginosa [11]): 4 µg/mL

MFKTTLCALLITASCSTFAA [AmpC (Escherichia coli), Q83TT7]
kcat/Km [12]: 2.9 M⁻¹ s⁻¹ | kcat/Km [13]: 38 M⁻¹ s⁻¹ | Km [14]: 21 µM | kcat [14]: 6e-05 s⁻¹ | Km [15]: 100 µM | kcat [15]: 0.004 s⁻¹
